US12209071B2, “Triazine derivatives for treating diseases relating to neurotrophins” (AlzeCure Pharma AB, priority 2018, dated 2025)

How the values were obtained:
TrkB = biological target: T1, TrkB (Homo sapiens, UniProt Q16620); assay: Enzyme Fragment Complementation cell-based assay, TrkB; settings: U2OS-cells over-expressing TrkB; ligand 10 ng/mL; 3 hours incubation
T1 construct: expressed in transfected cells; host or cells: U2OS
Source text: (§1) A high throughput cell-based screen has been used to identify positive modulators of TrkA, TrkB and TrkC. The screen involves the use of cell-based assay overexpressing TrkA, TrkB or TrkC. The purpose of the assay is to identify compounds that modulate neurotrophin signalling (Forsell et al 2012). The assay can be used in inhibitor mode using a high concentration of ligand, in modulator mode using an intermediate concentration and in agonist mode using a low concentration of ligand.
(§2) The assay uses Enzyme Fragment Complementation (EFC) technique, which is a proximity-based assay. Briefly, cells used in this assay over-express two fusion proteins, i.e. the receptor, which can be either one of TrkA, TrkB, TrkC, IGF1R or FGFR1, fused to a small peptide of beta-galactosidase and an adaptor protein, i.e. SHC1 (or any other Trk-adaptor protein) fused to the major part of beta-galactosidase. […] The proximity between the small activating peptide on the receptor and the major part of beta-galactosidase on the adaptor protein leads to an active beta-galactosidase enzyme. The activation of the receptor is quantified by measuring the amount of active beta-galactosidase by its conversion of a non-luminescent substrate into a luminescent product.
(§3) U2OS-cells, over-expressing TrkA or TrkB or TrkC, are plated in 96- or 384-well plates and incubated overnight. Alternatively, cryopreserved HEK293-cells expressing IGFR1 or cryopreserved U2OS-cells expressing FGFR1 were plated in 96- or 384-well plates. On the following day, test compound was pre-mixed with ligand (NGF, BDNF, NT-3, IGF-1 or basic fibroblast growth factor (bFGF(FGF-2))) and the ligand-compound mixture is then added to the cells to yield a final ligand concentration of 10 ng/mL. After 3 hours of incubation at room temperature, the incubation is stopped by the addition of a beta-galactosidase substrate mixture containing detergents. The substrate mixture is incubated for 60 minutes at ambient temperature. The luminescence is thereafter read by the use of a plate reader.

TrkC = biological target: T2, TrkC (Homo sapiens, UniProt Q16288); assay: Enzyme Fragment Complementation cell-based assay, TrkC; settings: U2OS-cells over-expressing TrkC; ligand 10 ng/mL; 3 hours incubation
T2 construct: expressed in transfected cells; host or cells: U2OS
T2 sequence (Q16288 32-839): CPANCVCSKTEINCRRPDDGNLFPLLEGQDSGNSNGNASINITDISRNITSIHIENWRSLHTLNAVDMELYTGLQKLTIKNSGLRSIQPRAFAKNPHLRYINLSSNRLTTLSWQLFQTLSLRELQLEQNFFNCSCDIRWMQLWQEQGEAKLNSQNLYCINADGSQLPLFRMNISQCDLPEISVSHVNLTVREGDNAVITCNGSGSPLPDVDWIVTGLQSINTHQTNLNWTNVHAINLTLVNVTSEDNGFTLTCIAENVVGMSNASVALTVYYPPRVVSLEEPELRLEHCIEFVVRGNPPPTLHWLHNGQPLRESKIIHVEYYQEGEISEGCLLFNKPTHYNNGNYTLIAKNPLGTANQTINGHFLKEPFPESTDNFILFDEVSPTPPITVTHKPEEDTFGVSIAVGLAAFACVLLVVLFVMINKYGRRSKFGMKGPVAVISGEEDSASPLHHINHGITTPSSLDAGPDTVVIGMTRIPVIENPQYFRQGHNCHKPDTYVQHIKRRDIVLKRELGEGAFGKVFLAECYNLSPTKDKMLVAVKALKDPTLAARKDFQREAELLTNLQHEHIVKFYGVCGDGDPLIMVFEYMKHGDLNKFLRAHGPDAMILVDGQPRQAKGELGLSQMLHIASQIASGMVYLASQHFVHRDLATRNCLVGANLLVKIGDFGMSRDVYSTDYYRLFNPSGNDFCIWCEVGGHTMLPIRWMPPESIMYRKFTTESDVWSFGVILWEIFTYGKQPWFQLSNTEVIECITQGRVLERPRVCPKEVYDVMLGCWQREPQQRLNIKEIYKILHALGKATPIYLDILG
Source text: as §1, §2, §3

TrkA = biological target: T3, TrkA (Homo sapiens, UniProt P04629); assay: Enzyme Fragment Complementation cell-based assay, TrkA; settings: U2OS-cells over-expressing TrkA; ligand 10 ng/mL; 3 hours incubation
T3 construct: expressed in transfected cells; host or cells: U2OS
T3 sequence (P04629 33-796): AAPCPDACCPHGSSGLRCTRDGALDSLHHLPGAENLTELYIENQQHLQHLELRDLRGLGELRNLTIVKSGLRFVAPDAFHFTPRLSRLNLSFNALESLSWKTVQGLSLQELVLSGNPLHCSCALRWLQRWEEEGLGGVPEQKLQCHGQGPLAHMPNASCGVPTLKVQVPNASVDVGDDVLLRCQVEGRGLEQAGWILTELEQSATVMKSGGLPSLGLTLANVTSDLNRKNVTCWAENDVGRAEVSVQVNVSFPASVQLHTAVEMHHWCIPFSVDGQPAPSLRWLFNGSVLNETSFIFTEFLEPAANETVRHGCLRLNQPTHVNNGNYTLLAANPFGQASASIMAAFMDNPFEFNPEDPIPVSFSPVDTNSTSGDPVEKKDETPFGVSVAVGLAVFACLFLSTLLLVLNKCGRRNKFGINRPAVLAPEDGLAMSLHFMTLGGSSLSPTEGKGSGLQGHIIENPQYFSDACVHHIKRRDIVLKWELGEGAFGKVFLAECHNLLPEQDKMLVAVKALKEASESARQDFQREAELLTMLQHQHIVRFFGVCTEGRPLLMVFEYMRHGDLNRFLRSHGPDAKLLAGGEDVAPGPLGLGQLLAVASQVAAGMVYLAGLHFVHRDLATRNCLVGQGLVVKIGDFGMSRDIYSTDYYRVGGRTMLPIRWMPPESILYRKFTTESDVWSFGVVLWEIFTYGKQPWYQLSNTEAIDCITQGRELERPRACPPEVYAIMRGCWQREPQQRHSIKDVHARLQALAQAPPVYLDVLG
Source text: as §1, §2, §3

T1 sequence (Q16620 32-822): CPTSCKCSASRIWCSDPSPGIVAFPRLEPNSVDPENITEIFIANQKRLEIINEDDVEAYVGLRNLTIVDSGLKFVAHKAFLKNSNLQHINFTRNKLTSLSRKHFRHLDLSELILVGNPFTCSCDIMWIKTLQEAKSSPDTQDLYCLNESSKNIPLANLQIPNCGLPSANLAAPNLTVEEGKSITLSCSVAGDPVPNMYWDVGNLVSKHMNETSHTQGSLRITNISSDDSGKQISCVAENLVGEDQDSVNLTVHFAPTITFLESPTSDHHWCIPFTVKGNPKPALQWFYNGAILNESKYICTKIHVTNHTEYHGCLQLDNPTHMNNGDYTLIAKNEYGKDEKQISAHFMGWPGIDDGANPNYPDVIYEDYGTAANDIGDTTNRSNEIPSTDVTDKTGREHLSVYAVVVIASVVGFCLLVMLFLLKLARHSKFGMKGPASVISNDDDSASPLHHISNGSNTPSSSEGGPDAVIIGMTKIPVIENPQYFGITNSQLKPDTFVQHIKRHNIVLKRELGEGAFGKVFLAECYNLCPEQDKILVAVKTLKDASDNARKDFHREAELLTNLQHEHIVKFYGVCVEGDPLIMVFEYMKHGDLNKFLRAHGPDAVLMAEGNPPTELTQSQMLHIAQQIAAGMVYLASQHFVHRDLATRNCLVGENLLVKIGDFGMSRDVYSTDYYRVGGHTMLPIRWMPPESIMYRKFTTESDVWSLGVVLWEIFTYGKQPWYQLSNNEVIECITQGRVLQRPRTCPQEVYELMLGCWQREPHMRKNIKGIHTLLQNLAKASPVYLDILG

| SMILES | EC50 (TrkB) | EC50 (TrkC) | EC50 (TrkA) |
| --- | --- | --- | --- |
| COCCOc1cc(-n2c(=O)[nH]c(=O)n(-c3cccc(Cl)c3)c2=O)ccc1Oc1ccccc1 [Example 58, 1-(3-chlorophenyl)-3-[3-(2-methoxyethoxy)-4-phenoxyphenyl]-1,3,5-triazinane-2,4,6-trione] | 230 nM | 180 nM | 220 nM |
| COCCOc1cc(-n2c(=O)[nH]c(=O)n(C)c2=O)ccc1Oc1ccccc1 [Example 28, 1-[3-(2-methoxyethoxy)-4-phenoxyphenyl]-3-methyl-1,3,5-triazinane-2,4,6-trione] | 990 nM | 520 nM | 1000 nM |
| CC(C)Oc1cc(-n2c(=O)[nH]c(=O)n(C)c2=O)ccc1Oc1ccccc1 [Example 26, 1-methyl-3-[4-phenoxy-3-(propan-2-yloxy)phenyl]-1,3,5-triazinane-2,4,6-trione] | 1500 nM | 2000 nM | 1100 nM |
| O=c1[nH]c(=O)n(-c2ccc(Oc3ccccc3)c(OC3CCOC3)c2)c(=O)n1-c1ccccc1 (stereo not drawn) [Example 17, 1-[3-(oxolan-3-yloxy)-4-phenoxyphenyl]-3-phenyl-1,3,5-triazinane-2,4,6-trione] | 750 nM | 480 nM | 780 nM |
| CCOc1cc(-n2c(=O)[nH]c(=O)n(-c3ccccc3)c2=O)ccc1Oc1ccccc1 [Example 16, 1-(3-ethoxy-4-phenoxyphenyl)-3-phenyl-1,3,5-triazinane-2,4,6-trione] | 370 nM | 510 nM | 390 nM |
| Cn1c(=O)[nH]c(=O)n(-c2ccc(Oc3ccccc3)c(Cl)c2)c1=O [Example 65, 1-(3-chloro-4-phenoxyphenyl)-3-methyl-1,3,5-triazinane-2,4,6-trione] | 1600 nM | 320 nM | 4500 nM |
| Cc1cn(-c2ccccc2)c2ccc(-n3c(=O)[nH]c(=O)n(-c4ccccc4)c3=O)cc12 [Example 35, 1-(3-Methyl-1-phenyl-1H-indol-5-yl)-3-phenyl-1,3,5-triazinane-2,4,6-trione] | 260 nM | 500 nM | 980 nM |
| Cn1c(=O)[nH]c(=O)n(-c2ccc(Oc3ccccc3)c(OCC3COC3)c2)c1=O [Example 24, 1-methyl-3-[3-(oxetan-3-ylmethoxy)-4-phenoxyphenyl]-1,3,5-triazinane-2,4,6-trione] | 610 nM | 220 nM | 500 nM |
| Cn1c(=O)[nH]c(=O)n(-c2ccc(Oc3ccc(Cl)cc3)cc2)c1=O [Example 64, 1-[4-(4-chlorophenoxy)phenyl]-3-methyl-1,3,5-triazinane-2,4,6-trione] | 5900 nM | 9600 nM | 4400 nM |
| Cc1cn(Cc2ccccc2)c2ccc(-n3c(=O)[nH]c(=O)n(C)c3=O)cc12 [Example 38, 1-(1-benzyl-3-methyl-1H-indol-5-yl)-3-methyl-1,3,5-triazinane-2,4,6-trione] | 4200 nM | 2400 nM | 4500 nM |
| O=c1[nH]c(=O)n(-c2ccc(Oc3ccccc3)c(OC3CCCC3)c2)c(=O)n1-c1ccccc1 [Example 23, 1-[3-(cyclopentyloxy)-4-phenoxyphenyl]-3-phenyl-1,3,5-triazinane-2,4,6-trione] | 920 nM | 770 nM | 1000 nM |
| COCCOc1cc(-n2c(=O)[nH]c(=O)n(-c3ccccc3)c2=O)ccc1Oc1ccccc1 [Example 29, 1-[3-(2-methoxyethoxy)-4-phenoxyphenyl]-3-phenyl-1,3,5-triazinane-2,4,6-trione] | 500 nM | 340 nM | 560 nM |
| COCCOc1cc(-n2c(=O)[nH]c(=O)n(-c3ccc(Cl)cc3)c2=O)ccc1Oc1ccccc1 [Example 59, 1-(4-chlorophenyl)-3-[3-(2-methoxyethoxy)-4-phenoxyphenyl]-1,3,5-triazinane-2,4,6-trione] | 460 nM | 330 nM | 480 nM |
| CC(C)Oc1cc(-n2c(=O)[nH]c(=O)n(-c3ccccc3)c2=O)ccc1Oc1ccccc1 [Example 27, 1-[4-phenoxy-3-(propan-2-yloxy)phenyl]-3-phenyl-1,3,5-triazinane-2,4,6-trione] | 370 nM | 330 nM | 360 nM |
| O=c1[nH]c(=O)n(-c2ccc(Oc3ccccc3)c(OCC3COC3)c2)c(=O)n1-c1ccccc1 [Example 25, 1-[3-(oxetan-3-ylmethoxy)-4-phenoxyphenyl]-3-phenyl-1,3,5-triazinane-2,4,6-trione] | 790 nM | 1000 nM | 550 nM |
| Cc1cc(-n2c(=O)[nH]c(=O)n(-c3ccccc3)c2=O)ccc1Sc1ccccc1 [Example 34, 1-[3-methyl-4-(phenylsulfanyl)phenyl]-3-phenyl-1,3,5-triazinane-2,4,6-trione] | 2000 nM | 1200 nM | 1600 nM |
| Cn1c(=O)[nH]c(=O)n(-c2ccc(Oc3ccccc3)c(OC3CCCC3)c2)c1=O [Example 15, 1-[3-(cyclopentyloxy)-4-phenoxyphenyl]-3-methyl-1,3,5-triazinane-2,4,6-trione] | 650 nM | 1100 nM | 590 nM |
| Cn1c(=O)[nH]c(=O)n(-c2ccc(Oc3ccccc3)c(OC3CCOC3)c2)c1=O (stereo not drawn) [Example 22, 1-methyl-3-[3-(oxolan-3-yloxy)-4-phenoxyphenyl]-1,3,5-triazinane-2,4,6-trione] | 3600 nM | 3000 nM | 1300 nM |
| Cc1cc(-n2c(=O)[nH]c(=O)n(-c3cccc4[nH]ccc34)c2=O)ccc1Oc1ccccc1 [Example 49, 1-(1H-indol-4-yl)-3-(3-methyl-4-phenoxyphenyl)-1,3,5-triazinane-2,4,6-trione] | 790 nM | 2000 nM | 190 nM |
| O=c1[nH]c(=O)n(-c2ccc(Oc3ccccc3)c(Br)c2)c(=O)n1-c1ccccc1 [Example 69, 1-(3-bromo-4-phenoxyphenyl)-3-phenyl-1,3,5-triazinane-2,4,6-trione] | 250 nM | 190 nM | 220 nM |
| Cn1c(=O)[nH]c(=O)n(-c2ccc(Oc3ccccc3)c(OCc3ccccc3)c2)c1=O [Example 30, 1-[3-(benzyloxy)-4-phenoxyphenyl]-3-methyl-1,3,5-triazinane-2,4,6-trione] | 7500 nM | 890 nM | 1100 nM |
| COCCOc1cc(-n2c(=O)[nH]c(=O)n(-c3cccc(C)c3)c2=O)ccc1Oc1ccccc1 [Example 57, 1-[3-(2-methoxyethoxy)-4-phenoxyphenyl]-3-(3-methylphenyl)-1,3,5-triazinane-2,4,6-trione] | 120 nM | 90 nM | 180 nM |
| Cc1cn(Cc2ccccc2)c2ccc(-n3c(=O)[nH]c(=O)n(-c4ccccc4)c3=O)cc12 [Example 36, 1-(1-Benzyl-3-methyl-1H-indol-5-yl)-3-phenyl-1,3,5-triazinane-2,4,6-trione] | 460 nM | 1500 nM | 950 nM |
| Cc1cn(-c2ccccc2)c2ccc(-n3c(=O)[nH]c(=O)n(C)c3=O)cc12 [Example 37, 1-methyl-3-(3-methyl-1-phenyl-1H-indol-5-yl)-1,3,5-triazinane-2,4,6-trione] | – | 40 nM | 390 nM |
| Cc1cc(-n2c(=O)[nH]c(=O)n(-c3cscn3)c2=O)ccc1Oc1ccccc1 [Example 63, 1-(3-methyl-4-phenoxyphenyl)-3-(1,3-thiazol-4-yl)-1,3,5-triazinane-2,4,6-trione] | 950 nM | – | 2380 nM |
| Cc1cc(-n2c(=O)[nH]c(=O)n(C)c2=O)ccc1Oc1ccccc1 [Example 55, 1-methyl-3-(3-methyl-4-phenoxyphenyl)-1,3,5-triazinane-2,4,6-trione] | 1400 nM | – | 390 nM |
| Cc1cc(-n2c(=O)[nH]c(=O)n(-c3cccc4occc34)c2=O)ccc1Oc1ccccc1 [Example 72, 1-(1-benzofuran-4-yl)-3-(3-methyl-4-phenoxyphenyl)-1,3,5-triazinane-2,4,6-trione] | 110 nM | – | 200 nM |
| COCCOc1cc(-n2c(=O)[nH]c(=O)n(-c3cccc(OC)c3)c2=O)ccc1Oc1ccccc1 [Example 61, 1-[3-(2-methoxyethoxy)-4-phenoxyphenyl]-3-(3-methoxyphenyl)-1,3,5-triazinane-2,4,6-trione] | 380 nM | – | 420 nM |
| Cn1c(=O)[nH]c(=O)n(-c2ccc3c(cnn3-c3ccccc3)c2)c1=O [Example 31, 1-methyl-3-(1-phenyl-1H-indazol-5-yl)-1,3,5-triazinane-2,4,6-trione] | 69000 nM | – | 46000 nM |
